Data on 12 compounds can be found in patent publication US9624214B2, “Amino-substituted imidazo[1,2-a]pyridinecarboxamides and their use” (BAYER PHARMA AKTIENGESELLSCHAFT, priority 2012, dated 2017).

The target in this assay is T1, recombinant guanylate cyclase reporter cell line (Rattus norvegicus, UniProt P19686+P20595).
T1 construct: expressed in transfected cells
T1 sequence (P20595 1-619): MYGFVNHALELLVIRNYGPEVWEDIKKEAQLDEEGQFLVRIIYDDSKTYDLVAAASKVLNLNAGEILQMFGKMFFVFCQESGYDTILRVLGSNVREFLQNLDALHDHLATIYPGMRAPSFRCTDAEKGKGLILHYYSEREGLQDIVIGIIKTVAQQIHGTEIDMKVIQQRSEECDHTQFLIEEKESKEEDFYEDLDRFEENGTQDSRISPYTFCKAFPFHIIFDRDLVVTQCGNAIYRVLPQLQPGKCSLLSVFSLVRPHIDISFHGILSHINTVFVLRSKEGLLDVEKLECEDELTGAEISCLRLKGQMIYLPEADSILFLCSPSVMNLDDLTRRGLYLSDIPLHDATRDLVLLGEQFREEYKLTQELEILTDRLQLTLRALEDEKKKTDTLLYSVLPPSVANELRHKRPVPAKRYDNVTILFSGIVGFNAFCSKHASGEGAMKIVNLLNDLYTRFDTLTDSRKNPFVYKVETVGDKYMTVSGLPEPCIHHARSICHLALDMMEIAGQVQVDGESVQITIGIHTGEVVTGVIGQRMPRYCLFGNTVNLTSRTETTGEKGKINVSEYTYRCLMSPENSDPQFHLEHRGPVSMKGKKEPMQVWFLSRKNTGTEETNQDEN
T1 sequence (P19686 1-690): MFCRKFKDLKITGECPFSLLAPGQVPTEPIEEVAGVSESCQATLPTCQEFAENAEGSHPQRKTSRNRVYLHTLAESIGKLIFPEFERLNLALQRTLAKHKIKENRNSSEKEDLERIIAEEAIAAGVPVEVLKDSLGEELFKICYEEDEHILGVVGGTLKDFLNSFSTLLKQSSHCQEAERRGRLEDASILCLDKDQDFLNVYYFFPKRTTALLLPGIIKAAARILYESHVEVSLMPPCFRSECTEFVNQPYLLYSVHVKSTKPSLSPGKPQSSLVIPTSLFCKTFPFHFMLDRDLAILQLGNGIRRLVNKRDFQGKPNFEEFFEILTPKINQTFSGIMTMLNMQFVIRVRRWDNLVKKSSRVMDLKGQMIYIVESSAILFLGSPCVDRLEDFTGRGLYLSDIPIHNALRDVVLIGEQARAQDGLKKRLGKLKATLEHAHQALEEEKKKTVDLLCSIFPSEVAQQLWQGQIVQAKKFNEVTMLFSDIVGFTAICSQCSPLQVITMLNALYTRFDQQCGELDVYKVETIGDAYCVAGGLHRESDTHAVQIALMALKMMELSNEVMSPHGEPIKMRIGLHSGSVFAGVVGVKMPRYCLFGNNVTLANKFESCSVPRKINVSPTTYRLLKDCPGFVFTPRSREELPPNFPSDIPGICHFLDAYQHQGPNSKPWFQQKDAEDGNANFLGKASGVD
The experiment in a line: B-2. Action on recombinant guanylate cyclase reporter cell line. The class given is cell-based. Conditions: MEC = minimal effective concentration; in some cases mean values from individual determinations. In short, it runs like this: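 Each compound is applied to a cell line engineered with a reporter for recombinant guanylate cyclase. The minimal effective concentration is then noted, in part as a mean across separate determinations.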
On to `COCC(CN)NC(=O)c1c(C)nc2c(OCc3c(F)cccc3F)cccn12` (single isomer, unassigned) [Example 122, ent-N-(1-Amino-3-methoxypropan-2-yl)-8-[(2,6-difluorobenzyl)oxy]-2-methylimidazo[1,2-a]-pyridine-3-carboxamide Ditrifluoroacetate], for which the MEC was 1.00 µM.

Turning to `Cc1cc(OCc2c(F)cccc2F)c2nc(C)c(C(=O)NC(CN)c3ccc4ccccc4c3)n2c1` (racemic) [Example 379, rac-N-[2-amino-1-(2-naphthyl)ethyl]-8-[(2,6-difluorobenzyl)oxy]-2,6-dimethylimidazo[1,2-a]pyridine-3-carboxamide], the MEC turned out to be 1.00 µM.

For the compound `CCCC(C)(N)CNC(=O)c1c(C)nc2c(OCc3c(F)ccc(OC)c3F)cc(C)cn12` (stereo not drawn) [Example 364, ent-N-(2-amino-2-methylpentyl)-8-[(2,6-difluoro-3-methoxybenzyl)oxy]-2,6-dimethylimidao[1,2-a]pyridine-3-carboxamide], the MEC turned out to be 0.30 µM.

For the compound `Cc1cc(OCc2c(F)cccc2F)c2nc(C)c(C(=O)NCC3(N)CC3)n2c1` [Example 40, N-[(1-aminocyclopropyl)methyl]-8-[(2,6-difluorobenzyl)oxy]-2,6-dimethylimidazo[1,2-a]-pyridine-3-carboxamide], the MEC is 0.10 µM.

With `CCCC(C)(N)CNC(=O)c1c(C)nc2c(OCc3c(F)ccc(F)c3F)cc(C)cn12` (single isomer, unassigned) [Example 304, ent-N-(2-amino-2-methylpentyl)-2,6-dimethyl-8-[(2,3,6-trifluorobenzyl)oxy]imidazo[1,2-a]pyridine-3-carboxamide], the MEC came out at 0.10 µM.

As for `CC[C@](C)(N)CNC(=O)c1c(C)nc2c(OCc3c(F)cccc3F)cc(C)cn12` (single isomer, unassigned) [Example 200], the MEC was found to be 0.04 µM.

On to `CCCC[C@H](CN1CCN(C)CC1)NC(=O)c1c(C)nc2c(OCc3c(F)cccc3F)cccn12` [Example 67, ent-8-[(2,6-difluorobenzyl)oxy]-2-methyl-N-[(2R)-1-(4-methylpiperazin-1-yl)hexan-2-yl]imidazo[1,2-a]pyridine-3-carboxamide], for which the MEC stood at 0.30 µM.

With `CCC(C)(N)CNC(=O)c1c(C)nc2c(OCc3c(F)cccc3F)cc(CF)cn12` (stereo not drawn) [Example 404, ent-N-(2-amino-2-methylbutyl)-8-[(2,6-difluorobenzyl)oxy]-6-(fluoromethyl)-2-methylimidazo[1,2-a]pyridine-3-carboxamide], the MEC was found to be 0.30 µM.

In the case of `Cc1nc2c(OCc3c(F)cccc3F)cccn2c1C(=O)NC1CNCc2ccccc21` (single isomer, unassigned; ent-8) [Example 109, ent-8-[(2,6-difluorobenzyl)oxy]-2-methyl-N-(1,2,3,4-tetrahydroisoquinolin-4-yl)imidazo[1,2-a]pyridine-3-carboxamide], the MEC was 1.00 µM.

Regarding `Cc1nc2c(OCc3c(F)cccc3F)cccn2c1C(=O)NC(C)CN` (single isomer, unassigned; enantiomer b) [Example 20, ent-N-(1-Aminopropan-2-yl)-8-[(2,6-difluorobenzyl)oxy]-2-methylimidazo[1,2-a]pyridine-3-carboxamide (Enantiomer B)], the MEC came out at 1.00 µM.

Take `Cc1nc2c(OCc3c(F)cccc3F)cccn2c1C(=O)N[C@@H](C)CN1CCOCC1` [Example 171, 8-[(2,6-difluorobenzyl)oxy]-2-methyl-N-[(2S)-1-(morpholin-4-yl)propan-2-yl]imidazo[1,2-a]-pyridine-3-carboxamide]: the MEC was determined as 1.00 µM.

Consider `Cc1nc2c(OCc3c(F)cccc3F)cccn2c1C(=O)NC1CC2CCCC(C1)N2C` (stereo not drawn) [Example 90, 8-[(2,6-difluorobenzyl)oxy]-2-methyl-N-(9-methyl-9-azabicyclo[3.3.1]non-3-yl)imidazo[1,2-a]pyridine-3-carboxamide], for which the MEC worked out at 0.10 µM.
